Measurements reported in paper PMC10046369, “Low-Affinity/High-Selectivity Dopamine Transport Inhibition Sufficient to Rescue Cognitive Functions in the Aging Rat” (Biomolecules, 2023).

Key:
Assay in all cases: biochemical
Set-up in all cases: KINOMEscan competition binding panel, per cent of control
Settings in all cases: read-out: %Ctrl @ 2800nM
CSK = CSK (Homo sapiens, UniProt P41240)
Description: (§1) A panel of binding assays covering 450 human kinases and disease-relevant mutations was performed by DiscoverX (KINOMEscan®, Freemont, CA, USA) according to the standard and validated protocol defined by the contractor. […] Kinase binding assays This study was outsourced to DiscoverX (KINOMEscan®, Freemont, CA, USA) and is compliant with the corresponding project BUY004-01-p-00001. […] Results are reported as percent control (% Ctrl), where lower numbers indicate stronger hits in the matrix on the following page(s). %Ctrl calculation: ((test compound signal-positive control signal) / (negative control signal – positive control signal)) x 100.

FLT3(K663Q) = FLT3(K663Q) (Homo sapiens, UniProt P36888, K663Q)
Description: as §1

FLT3(ITD,F691L) = FLT3(ITD,F691L) (Homo sapiens, UniProt P36888, F691L/ITD)
Description: as §1

PHKG2 = PHKG2 (Homo sapiens, UniProt P15735)
Description: as §1

HPK1 = target: T1, HPK1 (Homo sapiens, UniProt Q92918)
T1 construct: gene MAP4K1
Description: as §1

KIT(V559D,V654A) = KIT(V559D,V654A) (Homo sapiens, UniProt P10721, V559D/V654A)
Description: as §1

PIK3CA(I800L) = PIK3CA(I800L) (Homo sapiens, UniProt P42336, I800L)
Description: as §1

LOK = target: T2, LOK (Homo sapiens, UniProt O94804)
T2 construct: gene STK10
Description: as §1

SIK = target: T3, SIK (Homo sapiens, UniProt P57059)
T3 construct: gene SIK1
Description: as §1

NEK11 = NEK11 (Homo sapiens, UniProt Q8NG66)
Description: as §1

TNK1 = TNK1 (Homo sapiens, UniProt Q13470)
Description: as §1

[1] = target: T4, RPS6KA4(Kin.Dom.1-N-terminal) (Homo sapiens, UniProt O75676)
T4 construct: Kin.Dom.1-N-terminal
Description: as §1

KIT(A829P) = KIT(A829P) (Homo sapiens, UniProt P10721, A829P)
Description: as §1

FLT3 = FLT3 (Homo sapiens, UniProt P36888)
Description: as §1

MST4 = target: T5, MST4 (Homo sapiens, UniProt Q9P289)
T5 construct: gene STK26
Description: as §1

EGFR(G719C) = EGFR(G719C) (Homo sapiens, UniProt P00533, G719C)
Description: as §1

CDK9 = CDK9 (Homo sapiens, UniProt P50750)
Description: as §1

EPHA3 = EPHA3 (Homo sapiens, UniProt P29320)
Description: as §1

NEK1 = NEK1 (Homo sapiens, UniProt Q96PY6)
Description: as §1

TNNI3K = TNNI3K (Homo sapiens, UniProt Q59H18)
Description: as §1

CTK = target: T6, CTK (Homo sapiens, UniProt P42679)
T6 construct: gene MATK
Description: as §1

AMPK-alpha1 = target: T7, AMPK-alpha1 (Homo sapiens, UniProt Q13131)
T7 construct: gene PRKAA1
Description: as §1

IKK-beta = target: T8, IKK-beta (Homo sapiens, UniProt O14920)
T8 construct: gene IKBKB
Description: as §1

ERK8 = target: T9, ERK8 (Homo sapiens, UniProt Q8TD08)
T9 construct: gene MAPK15
Description: as §1

FLT3(N841I) = FLT3(N841I) (Homo sapiens, UniProt P36888, N841I)
Description: as §1

SBK1 = SBK1 (Homo sapiens, UniProt Q52WX2)
Description: as §1

Chain of PIK3CA(I800L) (P42336 whole entry I800L): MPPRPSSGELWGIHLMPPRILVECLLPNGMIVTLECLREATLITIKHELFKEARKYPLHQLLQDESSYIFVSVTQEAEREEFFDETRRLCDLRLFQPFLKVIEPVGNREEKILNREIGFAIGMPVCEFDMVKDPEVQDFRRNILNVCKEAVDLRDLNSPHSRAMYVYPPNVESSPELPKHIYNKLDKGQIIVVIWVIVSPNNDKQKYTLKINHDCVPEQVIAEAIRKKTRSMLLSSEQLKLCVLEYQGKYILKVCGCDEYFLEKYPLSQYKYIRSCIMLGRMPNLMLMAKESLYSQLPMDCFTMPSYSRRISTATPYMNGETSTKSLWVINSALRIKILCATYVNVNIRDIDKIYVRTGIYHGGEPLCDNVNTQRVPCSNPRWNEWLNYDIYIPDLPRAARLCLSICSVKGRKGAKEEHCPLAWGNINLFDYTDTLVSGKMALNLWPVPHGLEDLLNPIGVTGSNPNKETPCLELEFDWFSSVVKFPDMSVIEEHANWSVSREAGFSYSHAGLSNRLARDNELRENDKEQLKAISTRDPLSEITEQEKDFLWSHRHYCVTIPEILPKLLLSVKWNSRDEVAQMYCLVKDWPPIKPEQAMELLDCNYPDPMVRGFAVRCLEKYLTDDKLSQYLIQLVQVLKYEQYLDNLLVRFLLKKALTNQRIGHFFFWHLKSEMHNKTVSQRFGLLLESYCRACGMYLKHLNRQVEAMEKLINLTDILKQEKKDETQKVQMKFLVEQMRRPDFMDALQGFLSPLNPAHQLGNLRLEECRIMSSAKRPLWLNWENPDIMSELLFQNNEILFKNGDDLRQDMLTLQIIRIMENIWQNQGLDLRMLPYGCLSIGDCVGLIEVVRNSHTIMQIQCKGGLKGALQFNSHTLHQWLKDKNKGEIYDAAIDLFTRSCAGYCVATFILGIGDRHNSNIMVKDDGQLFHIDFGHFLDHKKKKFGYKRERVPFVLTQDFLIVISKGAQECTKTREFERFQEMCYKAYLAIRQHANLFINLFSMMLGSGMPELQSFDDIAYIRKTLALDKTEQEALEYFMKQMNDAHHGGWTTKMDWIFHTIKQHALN
Chain of TNK1 (Q13470 whole entry): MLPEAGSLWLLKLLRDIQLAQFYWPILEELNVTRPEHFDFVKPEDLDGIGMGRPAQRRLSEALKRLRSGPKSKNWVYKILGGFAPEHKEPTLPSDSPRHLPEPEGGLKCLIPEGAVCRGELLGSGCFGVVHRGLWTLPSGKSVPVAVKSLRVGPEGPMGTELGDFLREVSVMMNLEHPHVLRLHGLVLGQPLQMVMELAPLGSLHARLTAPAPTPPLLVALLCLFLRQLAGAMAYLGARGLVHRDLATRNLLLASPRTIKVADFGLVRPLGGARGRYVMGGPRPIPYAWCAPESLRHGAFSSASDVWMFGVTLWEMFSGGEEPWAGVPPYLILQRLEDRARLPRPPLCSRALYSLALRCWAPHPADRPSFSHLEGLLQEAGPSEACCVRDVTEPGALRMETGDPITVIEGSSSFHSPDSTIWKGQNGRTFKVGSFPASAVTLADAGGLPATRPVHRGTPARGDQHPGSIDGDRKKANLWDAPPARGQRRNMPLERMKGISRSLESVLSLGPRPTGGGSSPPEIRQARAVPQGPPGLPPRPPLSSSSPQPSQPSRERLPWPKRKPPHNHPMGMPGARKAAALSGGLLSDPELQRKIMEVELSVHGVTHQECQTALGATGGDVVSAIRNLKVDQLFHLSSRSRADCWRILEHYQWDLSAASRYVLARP
Chain of SBK1 (Q52WX2 whole entry): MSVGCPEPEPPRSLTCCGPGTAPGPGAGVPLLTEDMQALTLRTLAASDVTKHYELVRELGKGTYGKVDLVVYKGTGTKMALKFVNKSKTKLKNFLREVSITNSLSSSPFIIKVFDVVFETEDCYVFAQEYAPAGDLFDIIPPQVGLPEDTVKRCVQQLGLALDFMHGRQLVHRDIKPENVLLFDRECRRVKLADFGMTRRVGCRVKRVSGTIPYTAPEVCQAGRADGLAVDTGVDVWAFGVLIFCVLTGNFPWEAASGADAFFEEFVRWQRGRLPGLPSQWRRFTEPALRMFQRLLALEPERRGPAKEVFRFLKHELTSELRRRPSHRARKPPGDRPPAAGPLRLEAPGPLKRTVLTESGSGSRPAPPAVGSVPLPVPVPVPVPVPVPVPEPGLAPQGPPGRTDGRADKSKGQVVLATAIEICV
T1 sequence (Q92918 whole entry): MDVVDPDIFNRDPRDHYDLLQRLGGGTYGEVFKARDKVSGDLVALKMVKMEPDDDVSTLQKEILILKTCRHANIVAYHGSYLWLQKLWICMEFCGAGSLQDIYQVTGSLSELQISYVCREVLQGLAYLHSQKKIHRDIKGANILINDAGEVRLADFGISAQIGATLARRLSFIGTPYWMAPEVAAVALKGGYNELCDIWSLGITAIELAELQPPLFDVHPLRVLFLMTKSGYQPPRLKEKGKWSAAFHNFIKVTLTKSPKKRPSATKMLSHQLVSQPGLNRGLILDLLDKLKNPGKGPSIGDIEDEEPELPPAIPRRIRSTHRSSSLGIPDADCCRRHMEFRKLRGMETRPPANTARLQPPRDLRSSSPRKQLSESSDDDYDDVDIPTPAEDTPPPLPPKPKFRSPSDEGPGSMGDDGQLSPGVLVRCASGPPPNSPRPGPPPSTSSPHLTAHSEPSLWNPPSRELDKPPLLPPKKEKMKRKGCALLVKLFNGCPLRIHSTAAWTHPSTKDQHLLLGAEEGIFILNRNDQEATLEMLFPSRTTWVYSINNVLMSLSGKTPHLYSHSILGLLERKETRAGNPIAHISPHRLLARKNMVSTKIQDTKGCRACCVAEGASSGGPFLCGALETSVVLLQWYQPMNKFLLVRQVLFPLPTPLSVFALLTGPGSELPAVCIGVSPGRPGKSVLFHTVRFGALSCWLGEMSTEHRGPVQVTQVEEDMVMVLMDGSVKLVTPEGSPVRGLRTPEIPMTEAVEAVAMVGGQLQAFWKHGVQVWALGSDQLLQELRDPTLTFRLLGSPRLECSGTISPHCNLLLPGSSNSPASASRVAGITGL
Chain of EPHA3 (P29320 whole entry): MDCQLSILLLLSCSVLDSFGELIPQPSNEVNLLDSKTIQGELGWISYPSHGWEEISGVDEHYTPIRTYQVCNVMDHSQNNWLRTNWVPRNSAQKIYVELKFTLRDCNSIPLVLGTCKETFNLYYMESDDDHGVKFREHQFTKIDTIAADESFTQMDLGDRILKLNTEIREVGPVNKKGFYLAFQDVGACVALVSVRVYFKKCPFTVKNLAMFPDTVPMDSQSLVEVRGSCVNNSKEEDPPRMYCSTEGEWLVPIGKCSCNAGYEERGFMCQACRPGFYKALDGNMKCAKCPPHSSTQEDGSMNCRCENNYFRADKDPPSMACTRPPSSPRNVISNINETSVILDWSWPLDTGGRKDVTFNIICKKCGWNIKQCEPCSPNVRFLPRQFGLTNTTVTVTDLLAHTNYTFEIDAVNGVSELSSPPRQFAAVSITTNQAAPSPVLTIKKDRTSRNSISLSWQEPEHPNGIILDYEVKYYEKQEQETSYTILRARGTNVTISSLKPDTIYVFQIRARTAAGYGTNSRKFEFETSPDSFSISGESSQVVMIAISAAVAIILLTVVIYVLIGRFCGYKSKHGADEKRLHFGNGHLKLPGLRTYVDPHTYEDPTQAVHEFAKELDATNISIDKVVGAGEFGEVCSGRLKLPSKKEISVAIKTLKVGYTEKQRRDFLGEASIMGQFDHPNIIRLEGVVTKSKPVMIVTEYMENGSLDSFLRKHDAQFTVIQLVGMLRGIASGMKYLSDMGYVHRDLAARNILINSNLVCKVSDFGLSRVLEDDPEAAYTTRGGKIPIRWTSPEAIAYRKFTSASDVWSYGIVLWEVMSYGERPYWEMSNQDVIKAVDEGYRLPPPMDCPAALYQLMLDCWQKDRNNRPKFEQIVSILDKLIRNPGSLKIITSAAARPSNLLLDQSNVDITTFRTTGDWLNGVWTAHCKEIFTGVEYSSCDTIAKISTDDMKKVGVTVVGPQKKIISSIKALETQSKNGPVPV
Chain of KIT(A829P) (P10721 whole entry A829P): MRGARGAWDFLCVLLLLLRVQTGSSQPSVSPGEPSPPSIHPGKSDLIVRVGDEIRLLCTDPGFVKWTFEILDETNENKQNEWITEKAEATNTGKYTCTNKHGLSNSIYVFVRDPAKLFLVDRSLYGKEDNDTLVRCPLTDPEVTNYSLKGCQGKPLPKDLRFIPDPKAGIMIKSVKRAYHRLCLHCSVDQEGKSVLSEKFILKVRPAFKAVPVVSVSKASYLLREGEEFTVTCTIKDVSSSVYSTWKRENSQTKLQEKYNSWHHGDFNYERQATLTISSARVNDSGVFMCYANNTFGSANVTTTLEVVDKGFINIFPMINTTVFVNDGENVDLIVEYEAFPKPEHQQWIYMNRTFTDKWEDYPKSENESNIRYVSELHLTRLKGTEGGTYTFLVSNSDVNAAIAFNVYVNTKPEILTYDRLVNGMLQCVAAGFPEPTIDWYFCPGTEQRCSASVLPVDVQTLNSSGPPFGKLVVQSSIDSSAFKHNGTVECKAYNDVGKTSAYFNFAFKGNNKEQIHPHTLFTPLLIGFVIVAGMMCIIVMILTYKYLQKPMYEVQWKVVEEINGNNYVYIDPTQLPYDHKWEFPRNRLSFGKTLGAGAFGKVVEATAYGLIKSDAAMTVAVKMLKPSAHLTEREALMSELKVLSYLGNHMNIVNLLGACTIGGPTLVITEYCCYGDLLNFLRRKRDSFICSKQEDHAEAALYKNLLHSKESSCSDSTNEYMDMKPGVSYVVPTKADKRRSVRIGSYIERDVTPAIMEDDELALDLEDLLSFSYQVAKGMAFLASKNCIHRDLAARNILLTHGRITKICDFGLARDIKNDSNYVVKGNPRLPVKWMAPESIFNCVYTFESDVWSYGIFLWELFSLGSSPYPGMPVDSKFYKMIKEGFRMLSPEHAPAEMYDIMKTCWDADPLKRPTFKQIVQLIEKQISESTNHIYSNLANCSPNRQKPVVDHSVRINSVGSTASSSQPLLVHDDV
Chain of KIT(V559D,V654A) (P10721 whole entry V559D/V654A): as the sequence (P10721 whole entry A829P) above, with V559D, V654A, P829A counted along it

[O-][S@@+](Cc1cncs1)C(c1ccccc1)c1ccccc1 [S-CE-123, (S)-5-((Benzhydrylsulfinyl)Methyl)Thiazole]
remaining binding at 2.8 µM (CSK): 98%
remaining binding at 2.8 µM (FLT3(K663Q)): 96%
remaining binding at 2.8 µM (FLT3(ITD,F691L)): 50%
remaining binding at 2.8 µM (PHKG2): 96%
remaining binding at 2.8 µM (HPK1): 89%
remaining binding at 2.8 µM (KIT(V559D,V654A)): 100%
remaining binding at 2.8 µM (PIK3CA(I800L)): 84%
remaining binding at 2.8 µM (LOK): 95%
remaining binding at 2.8 µM (SIK): 100%
remaining binding at 2.8 µM (NEK11): 100%
remaining binding at 2.8 µM (TNK1): 74%
remaining binding at 2.8 µM [1]: 100%
remaining binding at 2.8 µM (KIT(A829P)): 98%
remaining binding at 2.8 µM (FLT3): 96%
remaining binding at 2.8 µM (MST4): 100%
remaining binding at 2.8 µM (EGFR(G719C)): 74%
remaining binding at 2.8 µM (CDK9): 92%
remaining binding at 2.8 µM (EPHA3): 97%
remaining binding at 2.8 µM (NEK1): 90%
remaining binding at 2.8 µM (TNNI3K): 100%
remaining binding at 2.8 µM (CTK): 51%
remaining binding at 2.8 µM (AMPK-alpha1): 92%
remaining binding at 2.8 µM (IKK-beta): 96%
remaining binding at 2.8 µM (ERK8): 100%
remaining binding at 2.8 µM (FLT3(N841I)): 91%
remaining binding at 2.8 µM (SBK1): 100%
